In PMC5755735, “Discovery of indolylpiperazinylpyrimidines with dual-target profiles at adenosine A2A and dopamine D2 receptors for Parkinson's disease treatment” (PLoS ONE, 2018):
Where a name gives a salt, the structure may show the parent alone.

How the values were obtained:
D2 receptor = conditions: competition binding experiments with [3H]spiperone; cited from earlier work
[1] = biological target: human A2A receptors expressed in CHO cells (Homo sapiens, UniProt P29274); assay: competition binding at human A2A adenosine receptors ([3H]NECA displacement); conditions: for Ki: displacement of [3H]NECA, CHO cells, 95% confidence limits, n = 3–6, read-out: Ki hA2A; for hA1/hA2A / hA3/hA2A: selectivity ratio of Ki values
Experimental: (§1) A two-step procedure was adopted to prepare membrane for radioligand binding from cells stably transfected with human adenosine receptor subtypes (hA1, hA2A and hA3 expressed on CHO cells). Firstly, cell fragments and nuclei were removed by using low-speed centrifugation (1,000 g for 10 min). After that, crude membrane fraction from supernatant was then sedimented at 100,000 g for 30 min. The membrane pellet was subsequently re-suspended in the specific binding buffer, frozen in liquid nitrogen and stored at -80°C. For measurement of adenylyl cyclase activity in the hA2B receptors, one-step centrifugation procedure was used; the homogenate was sedimented for 30 min at 54,000 g. The so-obtained crude membrane pellet was re-suspended in 50 mM Tris/HCl, pH 7.4 and used for the adenylyl cyclase assay immediately.
(§2) Non-specific binding was determined using theophylline 1 mM. […] Non-specific binding was determined using N^6-R-phenylisopropyl adenosine (R-PIA) 100 μM. ^41 The binding of [^3H]HEMADO to CHO cells transfected with hA3 adenosine receptors was carried out as described earlier. […] Non-specific binding was determined using R-PIA 100 μM.
(§3) The assay mixture was then filtered through the built-in filter at the bottom of the 96-well microplate filtration system (Millipore Multiscreen MAFC) and washed three times with 200 μL of cold buffer. After addition of 20 μL of scintillator to the dried filter plates, the filter bound radioactivity was counted on a Wallac Micro-Beta counter. All Ki values were calculated by non-linear curve fitting with the program SCTFIT [45].

[2] = biological target: T1, human A2B receptors expressed in CHO cells (Homo sapiens, UniProt P29275); assay: inhibition of NECA-stimulated adenylyl cyclase activity at hA2B
T1 sequence (P29275 1-332): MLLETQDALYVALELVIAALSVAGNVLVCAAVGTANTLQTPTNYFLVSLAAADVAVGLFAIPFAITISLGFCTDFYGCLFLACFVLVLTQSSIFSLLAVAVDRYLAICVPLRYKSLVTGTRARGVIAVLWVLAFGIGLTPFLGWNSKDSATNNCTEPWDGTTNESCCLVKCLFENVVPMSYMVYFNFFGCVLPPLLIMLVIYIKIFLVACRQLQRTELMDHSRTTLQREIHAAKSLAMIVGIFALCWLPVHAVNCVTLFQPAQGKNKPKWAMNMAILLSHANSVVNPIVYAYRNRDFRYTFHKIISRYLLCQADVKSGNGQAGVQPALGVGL

[3] = biological target: T2, human A1 receptors expressed in CHO cells (Homo sapiens, UniProt P30542); assay: competition binding at human A1 adenosine receptors ([3H]CCPA displacement); conditions: displacement of [3H]CCPA, 95% confidence limits, n = 3–6, read-out: Ki hA1
T2 sequence (P30542 1-326): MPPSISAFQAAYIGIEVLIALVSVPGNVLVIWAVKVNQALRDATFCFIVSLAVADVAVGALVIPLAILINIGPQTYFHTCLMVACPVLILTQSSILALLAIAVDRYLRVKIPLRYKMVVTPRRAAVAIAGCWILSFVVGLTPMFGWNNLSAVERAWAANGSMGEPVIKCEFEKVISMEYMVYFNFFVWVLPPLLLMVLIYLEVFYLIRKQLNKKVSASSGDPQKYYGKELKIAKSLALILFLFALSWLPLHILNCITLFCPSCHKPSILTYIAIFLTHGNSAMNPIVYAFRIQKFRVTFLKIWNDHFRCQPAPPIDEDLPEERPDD
Experimental: as §1, §2, §3

[4] = biological target: T3, human A3 receptors expressed in CHO cells (Homo sapiens, UniProt P0DMS8); assay: competition binding at human A3 adenosine receptors ([3H]HEMADO displacement); conditions: displacement of [3H]HEMADO, 95% confidence limits, n = 3–6, read-out: Ki hA3
T3 sequence (P0DMS8 1-318): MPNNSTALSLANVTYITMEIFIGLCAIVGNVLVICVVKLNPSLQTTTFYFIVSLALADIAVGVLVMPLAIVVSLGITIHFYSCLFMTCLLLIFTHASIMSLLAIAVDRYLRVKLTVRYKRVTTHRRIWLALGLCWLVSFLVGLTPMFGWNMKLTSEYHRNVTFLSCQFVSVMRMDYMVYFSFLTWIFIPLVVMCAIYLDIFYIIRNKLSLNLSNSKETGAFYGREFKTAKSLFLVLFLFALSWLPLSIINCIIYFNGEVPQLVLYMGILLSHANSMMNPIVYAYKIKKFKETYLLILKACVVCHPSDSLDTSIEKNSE
Experimental: as §1, §2, §3

hA2A = conditions: read-out: Ki hA2A; cited from earlier work
[5] = biological target: T3, human A3 receptors expressed in CHO cells; parameters: method as in PMID 17126322; conditions: read-out: KD of radioligand at hA3; cited from earlier work

human A2A receptors expressed in CHO cells, sequence (P29274 whole entry, the tested form may be a part): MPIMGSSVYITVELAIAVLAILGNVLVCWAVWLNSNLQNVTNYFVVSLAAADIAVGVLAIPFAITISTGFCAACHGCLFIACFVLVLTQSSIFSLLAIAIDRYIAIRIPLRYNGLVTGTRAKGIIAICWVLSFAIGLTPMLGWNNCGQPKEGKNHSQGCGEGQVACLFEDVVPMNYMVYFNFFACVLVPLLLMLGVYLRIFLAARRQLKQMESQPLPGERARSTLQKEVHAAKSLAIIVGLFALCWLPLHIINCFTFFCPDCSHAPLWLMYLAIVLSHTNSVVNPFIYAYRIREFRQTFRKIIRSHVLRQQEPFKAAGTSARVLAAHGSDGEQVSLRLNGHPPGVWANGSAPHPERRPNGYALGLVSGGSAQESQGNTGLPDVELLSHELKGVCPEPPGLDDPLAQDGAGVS

| Compound | Ki [1] [µM] | Ki [2] [µM] | Ki [3] [µM] | Ki [4] [µM] | hA1/hA2A [1] | hA3/hA2A [1] | fold decrease in hA2A affinity ([1]; versus compound 6) [fold] | fold improvement in hA2A affinity ([1]; versus compound 5) [fold] | Ki (D2 receptor) [µM] | Ki (hA2A) [µM] | Kd [5] [µM] |
| --- | --- | --- | --- | --- | --- | --- | --- | --- | --- | --- | --- |
| CCCN(CCc1ccccc1)C1CCc2c(O)cccc2C1 (racemic) [(±)-PPHT.HCl, (±)-2-(N-phenethyl-N-propyl)amino-5-hydroxytetralin hydrochloride] |  |  |  |  |  |  |  |  | 0.0133 |  |  |
| Cc1cc(C)nc(N2CCN(C(=O)CCc3c[nH]c4ccccc34)CC2)n1 [Compound 7, 1‐[4‐(4,6‐Dimethylpyrimidin‐2‐yl)piperazin‐1‐yl]‐3‐(1H‐indol‐3-yl)propan‐1‐one] | > 100 | > 20 |  |  |  |  |  |  |  |  |  |
| Cc1cc(C)nc(N2CCN(C(=O)CCCc3c[nH]c4ccccc34)CC2)n1 [Compound 8, 1‐[4‐(4,6‐Dimethylpyrimidin‐2‐yl)piperazin‐1‐yl]‐4‐(1H‐indol‐3‐yl)butan‐1‐one] | > 100 | > 20 |  |  |  |  |  |  |  |  |  |
| Cc1cc(C)nc(N2CCN(Cc3c[nH]c4ccccc34)CC2)n1 [Compound 9, 3‐{[4‐(4,6‐Dimethylpyrimidin‐2‐yl)piperazin‐1‐yl]methyl}‐1H‐indole] | > 30 | > 20 | > 100 | > 30 |  |  |  |  |  |  |  |
| Cc1cc(C)nc(N2CCN(CCc3c(C)[nH]c4ccccc34)CC2)n1 [Compound 10, 3‐{2‐[4‐(4,6‐Dimethylpyrimidin‐2‐yl)piperazin‐1‐yl]ethyl}‐2‐methyl‐1H‐indole] | 34.4 | > 20 | > 100 | 39.8 | >3 | 1.16 |  |  |  |  |  |
| Cc1cc(C)nc(N2CCN(CCCc3c[nH]c4ccccc34)CC2)n1 [Compound 11, 3‐{3‐[4‐(4,6‐Dimethylpyrimidin‐2‐yl)piperazin‐1‐yl]propyl}‐1H‐indole] | > 100 | > 20 |  |  |  |  |  |  |  |  |  |
| Cc1cc(C)nc(N2CCN(CCCCc3c[nH]c4ccccc34)CC2)n1 [Compound 12, 3‐{4‐[4‐(4,6‐Dimethylpyrimidin‐2‐yl)piperazin‐1‐yl]butyl}‐1H‐indole] | > 100 | > 20 |  |  |  |  |  |  |  |  |  |
| Cc1cc(C)nc(N2CCN(C(=O)Cc3c(C)[nH]c4c(F)cc(Br)cc34)CC2)n1 [Compound 17, 2‐(5‐Bromo‐7‐fluoro‐2‐methyl‐1H‐indol‐3‐yl)‐1‐[4‐(4,6-dimethylpyrimidin‐2‐yl)piperazin‐1‐yl]ethan‐1‐one] | > 100 | > 20 | > 100 | > 100 |  |  |  |  |  |  |  |
| Cc1cc(C)nc(N2CCN(C(=O)c3cc4ccccc4[nH]3)CC2)n1 [Compound 21, 2‐[4‐(4,6‐Dimethylpyrimidin‐2‐yl)piperazine‐1‐carbonyl]‐1H‐indole] | > 100 | > 20 | > 100 | > 100 |  |  |  |  |  |  |  |
| Cc1cc(C)nc(N2CCN(C(=O)c3cc4cc(F)ccc4[nH]3)CC2)n1 [Compound 22, 2‐[4‐(4,6‐Dimethylpyrimidin‐2‐yl)piperazine‐1‐carbonyl]‐5‐fluoro‐1H‐indole] | > 100 | > 20 | > 100 | > 100 |  |  |  |  |  |  |  |
| Cc1ccc2[nH]c(C(=O)N3CCN(c4nc(C)cc(C)n4)CC3)cc2c1 [Compound 23, 2‐[4‐(4,6‐Dimethylpyrimidin‐2‐yl)piperazine‐1‐carbonyl]‐5‐methyl‐1H‐indole] | > 100 | > 20 | > 100 | > 100 |  |  |  |  |  |  |  |
| COc1ccc2[nH]c(C(=O)N3CCN(c4nc(C)cc(C)n4)CC3)cc2c1 [Compound 24, 2‐[4‐(4,6‐Dimethylpyrimidin‐2‐yl)piperazine‐1‐carbonyl]‐5‐methoxy‐1H‐indole] | > 30 | > 20 | > 30 | > 30 |  |  |  |  |  |  |  |
| CCn1c(=O)c2c(nc(/C=C/c3ccc(OC)c(OC)c3)n2C)n(CC)c1=O [KW-6002] |  |  |  |  |  |  |  |  |  | 0.012 |  |
| CCCCC#Cc1nc(NC)c2ncn([C@@H]3O[C@H](CO)[C@@H](O)[C@H]3O)c2n1 [[^3H]HEMADO, [^3H]-2-hexyn-1-yl-N^6-methyladenosine] |  |  |  |  |  |  |  |  |  |  | 0.0011 |

Continued by falling Ki [1], values first:

| Ki [1] [µM] | Ki [2] [µM] | Ki [3] [µM] | Ki [4] [µM] | hA1/hA2A [1] | hA3/hA2A [1] | fold decrease in hA2A affinity ([1]; versus compound 6) [fold] | fold improvement in hA2A affinity ([1]; versus compound 5) [fold] | Compound | Ki (D2 receptor) [µM] | Ki (hA2A) [µM] | Kd [5] [µM] |
| --- | --- | --- | --- | --- | --- | --- | --- | --- | --- | --- | --- |
| 29.7 | > 20 | 4.82 | > 30 | 0.16 | >1 |  |  | Cc1cc(C)nc(N2CCN(C(=O)c3cc4cccc([N+](=O)[O-])c4[nH]3)CC2)n1 [Compound 25, {2‐[4‐(4,6‐Dimethylpyrimidin‐2‐yl)piperazine‐1‐carbonyl]‐1H‐indol‐7‐yl}azinic acid] |  |  |  |
| 27.6 | > 20 | > 100 | > 30 | >4 | >1 | 3.2 |  | Cc1cc(C)nc(N2CCN(C(=O)Cc3c[nH]c4ccccc34)CC2)n1 [Compound 18, 1‐[4‐(4,6‐Dimethylpyrimidin‐2‐yl)piperazin‐1‐yl]‐2‐(1H‐indol‐3‐yl)ethan‐1‐one] |  |  |  |
| 26.9 | > 20 | > 100 | > 30 | >4 | >1 |  |  | Cc1cc(C)nc(N2CCN(C(=O)Cc3c[nH]c4cc(F)ccc34)CC2)n1 [Compound 19, 1‐[4‐(4,6‐Dimethylpyrimidin‐2‐yl)piperazin‐1‐yl]‐2‐(6‐fluoro‐1H‐indol‐3‐yl)ethan‐1‐one] |  |  |  |
| 18.8 | > 20 | > 100 | > 30 | >5 | >2 |  |  | COc1cccc2[nH]cc(C(=O)N3CCN(c4nc(C)cc(C)n4)CC3)c12 [Compound 13, 3‐[4‐(4,6‐Dimethylpyrimidin‐2‐yl)piperazine‐1‐carbonyl]‐4‐methoxy‐1H‐indole] |  |  |  |
| 18.2 | > 20 | > 100 | > 30 | >6 | >2 |  |  | Cc1cc(C)nc(N2CCN(C(=O)Cc3c(C)[nH]c4ccc(F)cc34)CC2)n1 [Compound 15, 1‐[4‐(4,6‐Dimethylpyrimidin‐2‐yl)piperazin‐1‐yl]‐2‐(5‐fluoro‐2‐methyl‐1H‐indol‐3‐yl)ethan‐1‐one] |  |  |  |
| 15.5 | > 20 | > 100 | 19.5 | >7 | 1.26 |  |  | Cc1cc(C)nc(N2CCN(C(=O)c3c[nH]c4ccc(Cl)cc34)CC2)n1 [Compound 16, 5‐Chloro‐3‐[4‐(4,6‐dimethylpyrimidin‐2‐yl)piperazine‐1‐carbonyl]‐1H‐indole] |  |  |  |
| 12.7 | > 20 | > 100 | > 30 | >8 | >2 |  |  | COc1ccc2[nH]cc(C(=O)N3CCN(c4nc(C)cc(C)n4)CC3)c2c1 [Compound 14, 3‐[4‐(4,6‐Dimethylpyrimidin‐2‐yl)piperazine‐1‐carbonyl]‐5‐methoxy‐1H‐indole] |  |  |  |
| 3.63 | > 20 | > 100 | > 30 | >28 | >8 |  | 3 | COc1cccc2c(C(=O)N3CCN(c4nc(C)cc(C)n4)CC3)c[nH]c12 [Compound 20, 3‐[4‐(4,6‐Dimethylpyrimidin‐2‐yl)piperazine‐1‐carbonyl]‐7‐methoxy‐1H‐indole] |  |  |  |
